Earlier results on one sequence are cited in US20260364145A1, “MODIFIED CAVEOLIN-1 PEPTIDE FORMULATIONS AND METHODS OF MANUFACTURING AND USE THEREOF” (REIN THERAPEUTICS, INC., priority 2023, published 2026).

Holding throughout (details): cited from earlier work
Data set [1] relates to Cav-1 interaction with SRC kinases.
The test system of data set [2] is fibrosis.
For data set [3], the system named is Wnt-signaling, β-catenin-mediated transcription, activation of SRC, EGFR, MEK1 and ERK-2.

For DGIWKASFTTFTVTKYWFYR [CSP 20-mer], the “effect on Cav-1 interaction with SRC kinases” value in data set [1] is reported as “interferes with Cav-1 interaction with SRC kinases”. Moreover, the effect on fibrosis entry in data set [2] (animal models) is recorded as “prevent, limit, or reverse fibrosis in animal models”. In addition, the “effect on lung aSMA, epithelial apoptosis, collagen and profibrogenic signaling” value in data set [2] (in vivo) was “reduced lung aSMA and lung epithelial apoptosis, reduced collagen deposition, and down-regulation of expression of profibrogenic signaling molecules”. For the same sequence, in data set [3], the effect on signaling entry is “inhibition of Wnt-signaling, β-catenin-mediated transcription, activation of SRC, EGFR, MEK1 and ERK-2”.
